US11459308B2 (priority 2016, dated 2022)

Experiments:
[1] = in vitro; settings: African green monkey
[2] = system: rVSV-EBOV GP; test: microbe, parasite or virus in culture; assay type: cell-based, Zaire Ebolavirus; settings: Zaire ebolavirus, read-out: rVSV-EBOV IC50

Row | Structure (SMILES) | CC50 [1] [µM] | IC50 [2] [µM]
1 | O=[N+]([O-])c1ccc(N2CCOCC2)cc1NC(c1ccccc1)c1ccccc1 [PPZ-10] | > 100 | 5.5
2 | CCN(CC)c1ccc([N+](=O)[O-])c(NC(c2ccccc2)c2ccccc2)c1 [MBX 3696, 2-benzhydrylamino-4-(diethylamino)nitrobenzene] | > 100 | > 25
3 | CN1CCCN(c2ccc([N+](=O)[O-])c(NC(c3ccccc3)c3ccccc3)c2)CC1 [MBX 3700, 2-benzhydrylamino-4-(4-methyl-1,4-diazepan-1-yl)-1-nitrobenzene] | 7.6 | < 0.1
4 | CCOC(=O)CC(Nc1cc(N2CCN(C)CC2)ccc1[N+](=O)[O-])c1ccccc1 (stereo not shown) [MBX 4329, ethyl 3-((5-(4-methylpiperazin-1-yl)-2-nitrophenyl)amino)-3-phenylpropanoate] | 45 | 10.4
5 | c1ccc(C(c2ccccc2)n2cnc3ccc(N4CCNCC4)nc32)cc1 [MBX 4214, 3-benzhydryl-5-(piperazin-1-yl)-3H-imidazo[4,5-b]pyridine] | 105 | 3
6 | c1ccc(C(c2ccccc2)n2cnc3ccc(-c4cccnc4)cc32)cc1 [MBX 4294, 1-benzhydryl-6-(pyridin-3-yl)-1H-benzo[d]imidazole] | 59 | 15.6
7 | O=[N+]([O-])c1ccc(-c2cccnc2)cc1NC(c1ccccc1)c1ccccc1 [MBX 4279, N-benzhydryl-2-nitro-5-(pyridin-3-yl)aniline] | 49 | 12.4
8 | O=[N+]([O-])c1ccc(N2CCN(c3ccccc3)CC2)cc1NC(c1ccccc1)c1ccccc1 [MBX 3624, 2-benzhydrylamino-4-(4-phenylpiperazin-1-yl)nitrobenzene] | > 100 | > 25
9 | COc1ccccc1C(Nc1cc(N2CCN(C)CC2)ccc1[N+](=O)[O-])c1ccccc1 (stereo not shown) [MBX 3635, 2-[phenyl(2-methoxyphenyl)methylamino]-4-(4-methylpiperazin-1-yl)nitrobenzene] | 14 | 2.5
10 | CN1CCC(N(C)c2ccc([N+](=O)[O-])c(NC(c3ccccc3)c3ccccc3)c2)CC1 [MBX 3742, 2-(benzhydrylamino)-4-[methyl(1-methylpiperidin-4-yl)amino]-1-nitrobenzene] | 3.3 | 1.5
11 | CN1CCN(c2ccc([N+](=O)[O-])c(NC(c3ccccc3)c3ccncc3)c2)CC1 (stereo not shown) [MBX 3670, 2-[(pyridin-4-yl)(phenyl)methylamino]-4-(4-methylpiperazin-1-yl)nitrobenzene] | 45 | 4.5
12 | CN1CCN(c2ccc([N+](=O)[O-])c(NC(=O)c3ccccc3)c2)CC1 [MBX 4328, N-[5-(4-methylpiperazin-1-yl)-2-nitrophenyl]benzamide] | 60 | 11.5
13 | O=[N+]([O-])c1ccc(N2CCCCC2)cc1NC(c1ccccc1)c1ccccc1 [MBX 3702, 2-benzhydrylamino-4-(piperidin-1-yl)-1-nitrobenzene] | > 100 | > 25
14 | CN1CCN(c2ccc([N+](=O)[O-])c(NC3(c4ccccc4)CC3)c2)CC1 [MBX 4295, 5-(4-methylpiperazin-1-yl)-2-nitro-N-(1-phenylcyclopropyl)aniline] | 58 | 16.2
15 | CN1CCN(c2ccc([N+](=O)[O-])c(NC3(c4ccccc4)CCCC3)c2)CC1 [MBX 4296, 5-(4-methylpiperazin-1-yl)-2-nitro-N-(1-phenylcyclopentyl)aniline] | > 200 | 5.89
16 | COc1ccc(C(Nc2cc(N3CCN(C)CC3)ccc2[N+](=O)[O-])c2ccccc2)cc1 (stereo not shown) [MBX 3642, 2-[(4-methoxyphenyl)(phenyl)methylamino]-4-(4-methylpiperazin-1-yl)nitrobenzene] | 33 | > 25
17 | CN1CCN(c2ccc([N+](=O)[O-])c(NC(c3ccccc3)c3ccccn3)c2)CC1 (stereo not shown) [MBX 3647, 2-[(pyridin-2-yl)(phenyl)methylamino]-4-(4-methylpiperazin-1-yl)nitrobenzene] | > 100 | > 25
